Results as given in US20180201592A1, “2-AMINO-1,3,4-THIADIAZINE AND 2-AMINO-1,3,4-OXADIAZINE BASED ANTIFUNGAL AGENTS” (F2G Limited, priority 2015, published 2018).

Assays:
Conditions in all cases: banded MIC grade
Aspergillus fumigatus = experiment: Minimum inhibitory concentration, YAG medium; format: cell-based
Method: (§1) Between 1 and 5 mgs of compound were accurately weighed out into a sterile Eppendorf tube. The compound was dissolved in DMSO to give a solution containing 5 mg/mL. Tubes were stored at −20° C. until required.
(§2) On the day of testing thawed solutions were vortex mixed to ensure homogeneity. 30 μL of solution was removed and added to 570 μL of sterile water in a separate sterile Eppendorf. The thoroughly mixed solution was used to prepare a series of doubling dilutions in water, in a deep well plate. Thirteen replicate plates were prepared using a Minitrak by aspirating 20 μL from each well into eleven clear polystyrene 96 well plates.
(§3) Spores of Aspergillus spp. (Aspergillus fumigatus [two strains], Aspergillus terreus [two strains], Aspergillus niger and Aspergillus flavus) were harvested from cultures grown on Sabarauds agar for 5 days, and resuspended in PBS/Tween 80 to approx 1×10^7 cfu/mL. Each organism suspension was diluted in YAG medium (1% glucose, 1% ammonium chloride and 0.5% yeast extract) to 0.5-2×10^4cfu/mL. 80 μL of an organism suspension was added to each well of the plate containing drug dilutions.
(§4) This typically produced MIC plates with a drug range 50-0.05 mg/L and organism inocula of 1-2×10^4 cfu/mL for Aspergillus spp. All plates were incubated for 24 hrs at 35° C. Growth was assessed by monitoring the optical density at 485 nm for each well. The MIC of a compound is the lowest drug concentration that inhibits growth of an organism by >70% compared with a drug free control. MICs are recorded as mg/L. In cases where the MIC of an organism is […] the MIC is repeated using a concentration range of 0.5-0.0005 mg/L.

A. fumigatus 210 = experiment: Minimum inhibitory concentration, YAG medium; format: cell-based, Aspergillus fumigatus
Method: as §1, §2, §3, §4

A. terreus 49 = experiment: Minimum inhibitory concentration, YAG medium; format: cell-based, Aspergillus terreus
Method: (§5) The compound was dissolved in DMSO to give a solution containing 5 mg/mL. Tubes were stored at −20° C. until required. On the day of testing thawed solutions were vortex mixed to ensure homogeneity. 30 μL of solution was removed and added to 570 μL of sterile water in a separate sterile Eppendorf. The thoroughly mixed solution was used to prepare a series of doubling dilutions in water, in a deep well plate. Thirteen replicate plates were prepared using a Minitrak by aspirating 20 μL from each well into eleven clear polystyrene 96 well plates. Spores of Aspergillus spp. […] All plates were incubated for 24 hrs at 35° C. Growth was assessed by monitoring the optical density at 485 nm for each well. […] MICs are recorded as mg/L.

Aspergillus flavus = experiment: Minimum inhibitory concentration, YAG medium; format: cell-based
Method: as §5

Aspergillus niger = experiment: Minimum inhibitory concentration, YAG medium; format: cell-based
Method: as §5

Aspergillus terreus = experiment: Minimum inhibitory concentration, YAG medium; format: cell-based
Method: as §5

C. albicans = experiment: Minimum inhibitory concentration, RPMI medium; format: cell-based
Method: as §5, with “Assays were also performed in RPMI medium (Roswell Park Memorial Media 1640). To perform MIC tests in this medium, dilutions” for “Spores”, “compounds are prepared in microtitre plates as described above.” for “Aspergillus spp.”, “24-48” for “24”, “The following organisms were tested: […]” for “MICs are recorded as mg/L.”

C. parapsilosis = experiment: Minimum inhibitory concentration, RPMI medium; format: cell-based
Method: as §5, with “Assays were also performed in RPMI medium (Roswell Park Memorial Media 1640). To perform MIC tests in this medium, dilutions” for “Spores”, “compounds are prepared in microtitre plates as described above.” for “Aspergillus spp.”, “24-48” for “24”, “The following organisms were tested: […]” for “MICs are recorded as mg/L.”

C. tropicalis = experiment: Minimum inhibitory concentration, RPMI medium; format: cell-based
Method: as §5, with “Assays were also performed in RPMI medium (Roswell Park Memorial Media 1640). To perform MIC tests in this medium, dilutions” for “Spores”, “compounds are prepared in microtitre plates as described above.” for “Aspergillus spp.”, “24-48” for “24”, “The following organisms were tested: […]” for “MICs are recorded as mg/L.”

Compound	MIC grade, A. FUMIGATUS, YAG media (Aspergillus fumigatus)	MIC grade, A. FUMIGATUS 210, YAG media (A. fumigatus 210)	MIC grade, A. TERREUS 49, YAG media (A. terreus 49)	MIC grade, A. FLAVUS, YAG media (Aspergillus flavus)	MIC grade, A. NIGER, YAG media (Aspergillus niger)	MIC grade, A. TERREUS, YAG media (Aspergillus terreus)	MIC grade, C. ALBICANS, RPMI media (C. albicans)	MIC grade, C. PARAPSILOSIS, RPMI media (C. parapsilosis)	MIC grade, C. TROPICALIS, RPMI media (C. tropicalis)
NC1=NNC(c2cccc3ccccc23)=CS1	1 (1: ≥5 mg/L)	1 (1: ≥5 mg/L)	1 (1: ≥5 mg/L)	1 (1: ≥5 mg/L)	1 (1: ≥5 mg/L)	1 (1: ≥5 mg/L)	1 (1: ≥20 mg/L)	2 (2: 5-20 mg/L)	1 (1: ≥20 mg/L)
COCCOCCC1=NN=C(N)SC1	2 (2: 1-5 mg/L)	2 (2: 1-5 mg/L)	3 (3: 0.2-1 mg/L)	2 (2: 1-5 mg/L)	3 (3: 0.2-1 mg/L)	3 (3: 0.2-1 mg/L)	2 (2: 5-20 mg/L)	2 (2: 5-20 mg/L)	1 (1: ≥20 mg/L)
NC1=NN=C(CCOc2ccc(Br)cc2)CS1	4 (4: <0.2 mg/L)	4 (4: <0.2 mg/L)	1 (1: ≥5 mg/L)	4 (4: <0.2 mg/L)	4 (4: <0.2 mg/L)	3 (3: 0.2-1 mg/L)	1 (1: ≥20 mg/L)	3 (3: 1-5 mg/L)	2 (2: 5-20 mg/L)
CCCCCCOCCC1=NN=C(N)SC1	4 (4: <0.2 mg/L)	4 (4: <0.2 mg/L)	4 (4: <0.2 mg/L)	4 (4: <0.2 mg/L)	4 (4: <0.2 mg/L)	4 (4: <0.2 mg/L)	4 (4: <1 mg/L)	4 (4: <1 mg/L)	3 (3: 1-5 mg/L)
NC1=NN=C(c2ccc3ccccc3c2)CS1	2 (2: 1-5 mg/L)	1 (1: ≥5 mg/L)	1 (1: ≥5 mg/L)	1 (1: ≥5 mg/L)	1 (1: ≥5 mg/L)	1 (1: ≥5 mg/L)	1 (1: ≥20 mg/L)	1 (1: ≥20 mg/L)	1 (1: ≥20 mg/L)
NC1=NN=C(CCOc2ccccc2)CS1	4 (4: <0.2 mg/L)	4 (4: <0.2 mg/L)	3 (3: 0.2-1 mg/L)	3 (3: 0.2-1 mg/L)	3 (3: 0.2-1 mg/L)	4 (4: <0.2 mg/L)	3 (3: 1-5 mg/L)	4 (4: <1 mg/L)	2 (2: 5-20 mg/L)
CCCCOc1cccc(C2=NN=C(N)SC2)c1	1 (1: ≥5 mg/L)	1 (1: ≥5 mg/L)	1 (1: ≥5 mg/L)	1 (1: ≥5 mg/L)	1 (1: ≥5 mg/L)	1 (1: ≥5 mg/L)	1 (1: ≥20 mg/L)	1 (1: ≥20 mg/L)	1 (1: ≥20 mg/L)
COCCCC1=NN=C(N)SC1	4 (4: <0.2 mg/L)	4 (4: <0.2 mg/L)	4 (4: <0.2 mg/L)	4 (4: <0.2 mg/L)	4 (4: <0.2 mg/L)	3 (3: 0.2-1 mg/L)	3 (3: 1-5 mg/L)	3 (3: 1-5 mg/L)	2 (2: 5-20 mg/L)
NC1=NN=C(c2ccc(Cl)c(Cl)c2)CS1	1 (1: ≥5 mg/L)	1 (1: ≥5 mg/L)	1 (1: ≥5 mg/L)	1 (1: ≥5 mg/L)	2 (2: 1-5 mg/L)	1 (1: ≥5 mg/L)	1 (1: ≥20 mg/L)	1 (1: ≥20 mg/L)	1 (1: ≥20 mg/L)
Cc1cc(C)cc(C2=NN=C(N)SC2)c1	1 (1: ≥5 mg/L)	2 (2: 1-5 mg/L)	1 (1: ≥5 mg/L)	1 (1: ≥5 mg/L)	2 (2: 1-5 mg/L)	1 (1: ≥5 mg/L)	1 (1: ≥20 mg/L)	1 (1: ≥20 mg/L)	1 (1: ≥20 mg/L)
CCCCOc1ccc(C2=NN=C(N)SC2)cc1	3 (3: 0.2-1 mg/L)	3 (3: 0.2-1 mg/L)	1 (1: ≥5 mg/L)	3 (3: 0.2-1 mg/L)	3 (3: 0.2-1 mg/L)	3 (3: 0.2-1 mg/L)	1 (1: ≥20 mg/L)	1 (1: ≥20 mg/L)	1 (1: ≥20 mg/L)
COCCCCCC1=NN=C(N)SC1	4 (4: <0.2 mg/L)	4 (4: <0.2 mg/L)	4 (4: <0.2 mg/L)	4 (4: <0.2 mg/L)	4 (4: <0.2 mg/L)	4 (4: <0.2 mg/L)	4 (4: <1 mg/L)	4 (4: <1 mg/L)	3 (3: 1-5 mg/L)
NC1=NN=C2c3ccccc3CCC2S1 (stereo not drawn)	2 (2: 1-5 mg/L)	1 (1: ≥5 mg/L)	2 (2: 1-5 mg/L)	1 (1: ≥5 mg/L)	1 (1: ≥5 mg/L)	1 (1: ≥5 mg/L)	1 (1: ≥20 mg/L)	1 (1: ≥20 mg/L)	1 (1: ≥20 mg/L)
CCOC(=O)c1cccc(C2=NN=C(N)SC2)c1	1 (1: ≥5 mg/L)	1 (1: ≥5 mg/L)	1 (1: ≥5 mg/L)	1 (1: ≥5 mg/L)	1 (1: ≥5 mg/L)	1 (1: ≥5 mg/L)	1 (1: ≥20 mg/L)	1 (1: ≥20 mg/L)	1 (1: ≥20 mg/L)
CCOC(=O)c1ccc(C2=CSC(N)=NN2)cc1	4 (4: <0.2 mg/L)	4 (4: <0.2 mg/L)	3 (3: 0.2-1 mg/L)	4 (4: <0.2 mg/L)	4 (4: <0.2 mg/L)	4 (4: <0.2 mg/L)	3 (3: 1-5 mg/L)	4 (4: <1 mg/L)	2 (2: 5-20 mg/L)
